Assay results as given in ChEMBL document CHEMBL1201862, “PubChem BioAssay data set” (2004).
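Exposure lasted 48 hours, with cells grown in 96-well plates and compounds tested at five concentrations. The concentration for 50% growth inhibition is given as GI50.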 Calls of active or inactive are those of the source. Rule as the data show it: active = GI50 up to about 1.1 µM and inactive = higher.

Assays:
Assay in all cases: inhibition of tumour cell growth, NCI panel, 48 h
NCI-H23 = tested on: NCI-H23
MOLT-4 = tested on: MOLT-4
UACC-257 = tested on: UACC-257
SF-295 = tested on: SF-295
U-251 = tested on: U-251
SF-539 = tested on: SF-539
HT-29 = tested on: HT-29
RXF 393 = tested on: RXF 393
OVCAR-5 = tested on: OVCAR-5
SNB-75 = tested on: SNB-75
LOX IMVI = tested on: LOX IMVI
T47D = tested on: T47D
Hs-578T = tested on: Hs-578T
NCI/ADR-RES = tested on: NCI/ADR-RES
MDA-MB-231 = tested on: MDA-MB-231
UO-31 = tested on: UO-31
SR = tested on: SR
MDA-N = tested on: MDA-N
NCI-H226 = tested on: NCI-H226
UACC-62 = tested on: UACC-62
HCC 2998 = tested on: HCC 2998
SK-OV-3 = tested on: SK-OV-3
HOP-92 = tested on: HOP-92
OVCAR-8 = tested on: OVCAR-8
RPMI-8226 = tested on: RPMI-8226
SF-268 = tested on: SF-268
SW-620 = tested on: SW-620
HOP-62 = tested on: HOP-62
CAKI-1 = tested on: CAKI-1
HL-60 = tested on: HL-60
BT-549 = tested on: BT-549
OVCAR-3 = tested on: OVCAR-3
DU-145 = tested on: DU-145
Malme-3M = tested on: Malme-3M
A498 = tested on: A498
PC-3 = tested on: PC-3
SK-MEL-2 = tested on: SK-MEL-2
M14 = tested on: M14
OVCAR-4 = tested on: OVCAR-4
EKVX = tested on: EKVX
COLO 205 = tested on: COLO 205
HCT-15 = tested on: HCT-15
ACHN = tested on: ACHN
HCT-116 = tested on: HCT-116
TK-10 = tested on: TK-10
KM12 = tested on: KM12
SK-MEL-5 = tested on: SK-MEL-5
786-0 = tested on: 786-0
MCF7 = tested on: MCF7
NCI-H460 = tested on: NCI-H460
MDA-MB-435 = tested on: MDA-MB-435
CCRF-CEM = tested on: CCRF-CEM
A549 = tested on: A549
SNB-19 = tested on: SNB-19
SN12C = tested on: SN12C
IGROV-1 = tested on: IGROV-1
SK-MEL-28 = tested on: SK-MEL-28
K562 = tested on: K562
NCI-H522 = tested on: NCI-H522

CCN(CC)c1ccc(/C=C/C=C2C(=O)NC(=S)NC2=O)cc1
GI50 (NCI-H23): > 67.5 µM (inactive) | GI50 (MOLT-4): 4.27 µM (inactive) | GI50 (UACC-257): 58.6 µM (inactive) | GI50 (SF-295): > 83.6 µM (inactive) | GI50 (U-251): 21 µM (inactive) | GI50 (SF-539): 13.9 µM (inactive) | GI50 (HT-29): > 100 µM (inactive) | GI50 (RXF 393): 8.07 µM (inactive) | GI50 (OVCAR-5): > 100 µM (inactive) | GI50 (SNB-75): 28.9 µM (inactive) | GI50 (LOX IMVI): 13.5 µM (inactive) | GI50 (T47D): > 100 µM (inactive) | GI50 (Hs-578T): 11 µM (inactive) | GI50 (NCI/ADR-RES): 10.4 µM (inactive) | GI50 (MDA-MB-231): 22.9 µM (inactive) | GI50 (UO-31): > 71.8 µM (inactive) | GI50 (SR): 2.53 µM (inactive) | GI50 (MDA-N): 12.4 µM (inactive) | GI50 (NCI-H226): 28.6 µM (inactive) | GI50 (UACC-62): 15.1 µM (inactive) | GI50 (HCC 2998): 27.2 µM (inactive) | GI50 (SK-OV-3): > 100 µM (inactive) | GI50 (HOP-92): 77.8 µM (inactive) | GI50 (OVCAR-8): 14.3 µM (inactive) | GI50 (RPMI-8226): > 100 µM (inactive) | GI50 (SF-268): 22.5 µM (inactive) | GI50 (SW-620): > 33.9 µM (inactive) | GI50 (HOP-62): 15.4 µM (inactive) | GI50 (CAKI-1): > 100 µM (inactive) | GI50 (HL-60): 2.62 µM (inactive) | GI50 (BT-549): 13.1 µM (inactive) | GI50 (OVCAR-3): 16.6 µM (inactive) | GI50 (DU-145): 20.9 µM (inactive) | GI50 (Malme-3M): 16.6 µM (inactive) | GI50 (A498): > 100 µM (inactive) | GI50 (PC-3): > 69.3 µM (inactive) | GI50 (SK-MEL-2): > 68.9 µM (inactive) | GI50 (M14): 35.4 µM (inactive) | GI50 (OVCAR-4): > 100 µM (inactive) | GI50 (EKVX): > 62.4 µM (inactive) | GI50 (COLO 205): > 100 µM (inactive) | GI50 (HCT-15): > 38.7 µM | GI50 (ACHN): > 100 µM (inactive) | GI50 (HCT-116): 30.9 µM (inactive) | GI50 (TK-10): > 62.2 µM (inactive) | GI50 (KM12): 38 µM (inactive) | GI50 (SK-MEL-5): 37.5 µM (inactive) | GI50 (786-0): 27.7 µM (inactive) | GI50 (MCF7): 27 µM (inactive) | GI50 (NCI-H460): > 100 µM (inactive) | GI50 (MDA-MB-435): 8.67 µM (inactive) | GI50 (CCRF-CEM): 2.81 µM (inactive) | GI50 (A549): > 100 µM (inactive) | GI50 (SNB-19): 43.7 µM (inactive) | GI50 (SN12C): 29.9 µM (inactive) | GI50 (IGROV-1): > 100 µM (inactive) | GI50 (SK-MEL-28): 4.91 µM (inactive)

CO[C@@H]1[C@@H](OC2OC(C)C(OC3CC(C)(O)C(OC(=O)CC(C)C)C(C)O3)C(N(C)C)C2O)[C@@H](CC=O)C[C@@H](C)C(=O)/C=C/C2O[C@H]2C[C@@H](C)OC(=O)C[C@H]1OC(C)=O (some centres not stated)
GI50 (NCI-H23): 18.9 µM (inactive) | GI50 (MOLT-4): 9.57 µM (inactive) | GI50 (UACC-257): 17.2 µM (inactive) | GI50 (SF-295): 24.7 µM (inactive) | GI50 (U-251): 16.4 µM (inactive) | GI50 (SF-539): 19.6 µM (inactive) | GI50 (HT-29): 12.3 µM (inactive) | GI50 (RXF 393): 20.7 µM (inactive) | GI50 (OVCAR-5): 17.1 µM (inactive) | GI50 (SNB-75): 31.6 µM (inactive) | GI50 (LOX IMVI): 15.8 µM (inactive) | GI50 (T47D): 18.7 µM (inactive) | GI50 (Hs-578T): 37.4 µM (inactive) | GI50 (NCI/ADR-RES): 31 µM (inactive) | GI50 (MDA-MB-231): 24.8 µM (inactive) | GI50 (UO-31): 20.7 µM (inactive) | GI50 (SR): 11.3 µM (inactive) | GI50 (MDA-N): 15.2 µM (inactive) | GI50 (NCI-H226): 13 µM (inactive) | GI50 (UACC-62): 21.4 µM (inactive) | GI50 (HCC 2998): 17.7 µM (inactive) | GI50 (SK-OV-3): 39.2 µM (inactive) | GI50 (K562): 12.1 µM (inactive) | GI50 (HOP-92): 4.46 µM (inactive) | GI50 (OVCAR-8): 22.6 µM (inactive) | GI50 (NCI-H522): 16.6 µM (inactive) | GI50 (RPMI-8226): 17.7 µM (inactive) | GI50 (SF-268): 79.1 µM (inactive) | GI50 (SW-620): 17.5 µM (inactive) | GI50 (HOP-62): 19 µM (inactive) | GI50 (HL-60): 6.47 µM (inactive) | GI50 (BT-549): 17.6 µM (inactive) | GI50 (OVCAR-3): 14.3 µM (inactive) | GI50 (DU-145): 14.6 µM (inactive) | GI50 (Malme-3M): 14 µM (inactive) | GI50 (A498): 23 µM (inactive) | GI50 (PC-3): 15.5 µM (inactive) | GI50 (SK-MEL-2): 18.8 µM (inactive) | GI50 (M14): 16.1 µM (inactive) | GI50 (OVCAR-4): 15.2 µM (inactive) | GI50 (EKVX): 22.4 µM (inactive) | GI50 (COLO 205): 12.9 µM (inactive) | GI50 (HCT-15): 18.6 µM | GI50 (ACHN): 18.7 µM (inactive) | GI50 (HCT-116): 14.9 µM (inactive) | GI50 (TK-10): 24.9 µM (inactive) | GI50 (KM12): 17.3 µM (inactive) | GI50 (SK-MEL-5): 15.3 µM (inactive) | GI50 (786-0): 20 µM (inactive) | GI50 (MCF7): 16.3 µM (inactive) | GI50 (NCI-H460): 16.8 µM (inactive) | GI50 (MDA-MB-435): 17.7 µM (inactive) | GI50 (CCRF-CEM): 9.77 µM (inactive) | GI50 (A549): 32 µM (inactive) | GI50 (SNB-19): 22 µM (inactive) | GI50 (SN12C): 15.4 µM (inactive) | GI50 (IGROV-1): 10.8 µM (inactive) | GI50 (SK-MEL-28): 18.5 µM (inactive)

CC1(C)CCC2(C(=O)O)C(O)CC3(C)C(=CCC4C5(C)CCC(OC6OCC(O)C(O)C6OC6OCC(O)C(O)C6OC6OCC(O)C(OC7OC(CO)C(O)C(O)C7O)C6O)C(C)(C)C5CCC43C)C2C1 (configuration not stated)
GI50 (NCI-H23): 21 µM (inactive) | GI50 (UACC-257): 76.4 µM (inactive) | GI50 (SF-295): 20.3 µM (inactive) | GI50 (U-251): 33.7 µM (inactive) | GI50 (SF-539): > 100 µM (inactive) | GI50 (HT-29): > 100 µM (inactive) | GI50 (RXF 393): 20 µM (inactive) | GI50 (OVCAR-5): 33.8 µM (inactive) | GI50 (SNB-75): 17.9 µM (inactive) | GI50 (LOX IMVI): 47.5 µM (inactive) | GI50 (T47D): 97.1 µM (inactive) | GI50 (Hs-578T): 28.1 µM (inactive) | GI50 (NCI/ADR-RES): > 100 µM (inactive) | GI50 (MDA-MB-231): > 100 µM (inactive) | GI50 (UO-31): 17.3 µM (inactive) | GI50 (SR): 4.21 µM (inactive) | GI50 (MDA-N): 20.8 µM (inactive) | GI50 (NCI-H226): 23.7 µM (inactive) | GI50 (UACC-62): 31.7 µM (inactive) | GI50 (HCC 2998): 40.8 µM (inactive) | GI50 (SK-OV-3): 19.8 µM (inactive) | GI50 (K562): 25.6 µM (inactive) | GI50 (HOP-92): 29.4 µM (inactive) | GI50 (OVCAR-8): > 100 µM (inactive) | GI50 (NCI-H522): 19.8 µM (inactive) | GI50 (SF-268): 21.8 µM (inactive) | GI50 (SW-620): 39 µM (inactive) | GI50 (HOP-62): > 100 µM (inactive) | GI50 (CAKI-1): > 100 µM (inactive) | GI50 (HL-60): 24.7 µM (inactive) | GI50 (BT-549): 29.7 µM (inactive) | GI50 (OVCAR-3): > 100 µM (inactive) | GI50 (DU-145): > 100 µM (inactive) | GI50 (Malme-3M): 27.2 µM (inactive) | GI50 (A498): 26.9 µM (inactive) | GI50 (PC-3): 44.6 µM (inactive) | GI50 (SK-MEL-2): 24.5 µM (inactive) | GI50 (M14): 40.1 µM (inactive) | GI50 (OVCAR-4): 28.5 µM (inactive) | GI50 (EKVX): 37.9 µM (inactive) | GI50 (COLO 205): > 100 µM (inactive) | GI50 (HCT-15): > 100 µM | GI50 (ACHN): 35.1 µM (inactive) | GI50 (HCT-116): > 100 µM (inactive) | GI50 (TK-10): > 100 µM (inactive) | GI50 (KM12): 21.7 µM (inactive) | GI50 (SK-MEL-5): > 100 µM (inactive) | GI50 (786-0): > 100 µM (inactive) | GI50 (MCF7): > 100 µM (inactive) | GI50 (NCI-H460): > 100 µM (inactive) | GI50 (MDA-MB-435): 28.4 µM (inactive) | GI50 (CCRF-CEM): 31 µM (inactive) | GI50 (A549): 33.7 µM (inactive) | GI50 (SNB-19): 20 µM (inactive) | GI50 (SN12C): 23.3 µM (inactive) | GI50 (IGROV-1): > 100 µM (inactive) | GI50 (SK-MEL-28): 36.5 µM (inactive)
